Tests used:
[1] = test system: isolated rat hepatocytes; test: Hepatic production of glucose, 20 h incubation; assay type: cell-based, Wistar rat; settings: for HGP % of ctrl @ 50 μM / HGP % of ctrl @ 100 μM: rat hepatocytes
Protocol: (§1) The hepatocytes are isolated from Wistar rat liver having fasted for 24 h after perfusion of collagenase in the portal vein. 1) The freshly isolated hepatocytes are sown in 6-well plates coated with collagen and containing an adhesion medium (Williams Medium). After adhesion, the medium is replaced with RPMI 1640 medium without any glucose, containing hydrocortisone (7·10^−5M) for a duration from 16 to 18 h. The next day, the glucose hepatic production test is conducted in a Krebs medium for 3 h. The basal conditions are cells incubated with only Krebs, the stimulated conditions are the cells placed in Krebs+lactate+pyruvate, the produced conditions are the cells exposed to chemical compounds in a Krebs/lactate/pyruvate medium. In the case when the compounds are dissolved in DMSO, all the conditions of the tests are met in the presence of a final concentration of 0.1% DMSO. The positive control of the test is the mercaptopicolinate known for its inhibitory action on hepatic production of glucose via the phosphoenolpyruvate carboxykinase. For short term treatments, the compounds are incubated for 3 h. For long term treatments, the compounds are incubated for 20 h at the moment when the hepatocytes are cultivated in RPMI and then added during the hepatic production test for 3 h. At the end of the 3 hours of incubation, the supernatant is recovered for measurement of glucose with a colorimetric method using glucose oxidase. The cells are lysed with a 0.1% NaOH aqueous solution in order to measure the amount of protein with the Lowry method. The results are expressed in mmol of glucose per mg of protein.

[2] = test system: INS-1 cells; test: Stimulation test of insulin secretion by INS-1 cells; assay type: cell-based; settings: Rattus norvegicus, INS1, 1 h, insulin secretion by INS-1 cells in response to glucose; for insulin secretion, % of control at 10 µM: read-out: HGP % of ctrl @ 10 μM; for insulin secretion, % of control at 50 µM: read-out: HGP % of ctrl @ 50 μM
Outline: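 Rat INS-1 beta cells, starved 16 h in 5 mM glucose and pre-incubated 30 min in Krebs with 2.8 mM glucose, were exposed 1 h to compound in Krebs pH 7.4 with 3.5 mM glucose and 0.1% albumin. Secreted insulin was measured by ELISA in triplicate. Stimulation was scored at ≥130% of control.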

[3] = test system: isolated rat hepatocytes; test: Hepatic production of glucose, 3 h incubation; assay type: cell-based, Wistar rat; settings: Hepatocyte, rat hepatocytes; for activity at 50 µM: read-out: HGP % of ctrl @ 50 μM; for activity at 100 µM: read-out: HGP % of ctrl @ 100 μM
Protocol: as §1

[4] = test system: isolated perfused pancreases of N0STZ diabetic rats; test: Insulin secretion in response to glucose at isolated perfused pancreases of N0STZ diabetic rats; parameters: species or system rat; settings: glucose 16.5 mM, control group 560 ± 71
Protocol: The pancreas was taken on rats made to be diabetic by injection of Streptozotocin on the day of birth and anaesthetized with Pentobarbital (Nembutal©: 45 mg/kg; intraperitoneal route). These rats have a specific deficiency of the insulin response to glucose, as observed in humans with diabetes of type II. The isolation and the perfusion of the pancreas were achieved according to a modification of the procedure described by Sussman et al.. The effect of the compounds or reference substances is tested for 35 minutes (from t=20 min to t=55 min) in Krebs buffer, and then 20 minutes (from t=55 min to t=75 min) in the presence of glucose 16.5 mM. The concentration of insulin secreted into the medium is measured by an Elisa assay (ELISA Alpco Cat no. 80-INSRTH-E10). The results are expressed as an average +/−SEM (Standard Error of the Mean) of several experiments.

[5] = test system: GK rats; test: Antidiabetic activity in GK (Goto-Kakisaki) rats; assay type: in vivo, rat; settings: single oral dose 50 mg/kg
Protocol: The antidiabetic activity of compound 118 was evaluated in GK rats, a non-obese model of diabetes of type II. This model was obtained by cross-breeding of Wistar rats selected on the basis of a slight intolerance to glucose. These rats have the majority of dysfunctions observed in diabetes of type II in humans: hyperglycaemia, intolerance to glucose, insulin-resistance, and deteriorated insulin response to glucose. These animals were bred at Metabrain and were housed in an animal housing facility with a regulated temperature (22±2° C.) under constant humidity (50±20%) with a day/night cycle of 12 h (light from 7 h-19 h) and have access ad libitum to food and drink. The housing and experimentation conditions comply with the European directives relating to health and ethical treatment of laboratory animals (ETS123). In this study, the rats used are male 16-week old GK rats having fasted for 2 hours before beginning the study (postabsorptive condition). Monitoring of glycaemia is carried out on 2 groups of rats: One group treated with the compound 118 orally at the single dose of 50 mg/kg and a control group treated orally with the carrier. A blood sample was taken at T0 just before administration of the compound 118 or of the carrier and at times T1 h, T2 h, T4 h and T6 h after administration. The determination of glycaemia is achieved from a drop of blood taken from the tail measured with a glucometer Accu-Check Performa. The results shown below are expressed as a percentage of the decrease of glycaemia at T1 h, T2 h, T4 h and T6 h for the group treated with the compound 118 as compared with the control group

Structure (SMILES)	HGP % of ctrl @ 50 μM [1]	HGP % of ctrl @ 100 μM [1]	insulin secretion, % of control at 10 µM [2] [%]	insulin secretion, % of control at 50 µM [2] [%]	other results
CCONC(=O)COCc1nc2ccccn2c1C#Cc1ccc(F)cc1 [Derivative 58, N-ethoxy-2-((3-((4-fluorophenyl)ethynyl)imidazo [1,2-a]pyridin-2-yl)methoxy) acetamide]	32 % of ctrl	17 % of ctrl	127	233	inhibition of hepatic production of glucose [1]: strongest inhibitions
CCOC(=O)COCc1nc2ccccn2c1C#Cc1cccc(OC)c1 [Derivative 12, ethyl 2-((3-((3-methoxyphenyl)-ethynyl)imidazo[1,2-a]pyridin-2-yl)methoxy)acetate]	89 % of ctrl	54 % of ctrl	123	204	–
O=C([O-])COCc1nc2ccccn2c1C#Cc1ccc(F)cc1.[Na+] [Derivative 46, sodium 2-((3-((4-fluorophenyl)-ethynyl)imidazo[1,2-a]pyridin-2-yl)methoxy)acetate]	93 % of ctrl	52 % of ctrl	–	–	activity at 50 µM [3]: 85%; activity at 100 µM [3]: 69%
O=C(O)COCc1nc2ccccn2c1C#Cc1ccc(F)cc1 [Derivative 44, 2-((3-((4-fluorophenyl)ethynyl)-imidazo[1,2-a]pyridin-2-yl)methoxy)acetic acid]	–	–	–	–	Insulin secretion peak at G16.5 mM, Tested product ([4]; tested concentration 10 μM): 1 724 μU/min.
CC(C)OC(=O)COCc1nc2ccccn2c1C#Cc1ccc(F)cc1 [Derivative 54, isopropyl 2-((3-((4-fluorophenyl)ethynyl)imidazo [1,2-a]pyridin-2-yl)methoxy) acetate]	64 % of ctrl	44 % of ctrl	203	–	Insulin secretion peak at G16.5 mM, Tested product ([4]; tested concentration 1 μM): 961 ± 130 μU/min.; Insulin secretion peak at G16.5 mM, Tested product ([4]; tested concentration 10 μM): 1 637 μU/min.
O=C(O)CSCc1nc2ccc(Cl)cn2c1C#Cc1cccc(C(F)(F)F)c1 [Derivative 118, 2-[[6-chloro-3-[2-[3-(trifluoro-methyl)-phenyl]ethynyl]imidazo[1,2-a]pyridin-2-yl]methylsulfanyl] acetic acid]	57 % of ctrl	–	–	–	% of activity on glycemia ([5]; T1 h after administration, p = 0.0242): −14%; % of activity on glycemia ([5]; T2 h after administration, p = 0.0171): −15%; % of activity on glycemia ([5]; T4 h after administration, p = 0.1468 NS): −10%; % of activity on glycemia ([5]; T6 h after administration, p = 0.2450 NS): −8%; reduction of hyperglycaemia [5]: capable of reducing hyperglycaemia
COC(=O)c1ccccc1OCc1nc2ccccn2c1C#Cc1cccc(C#N)c1 [Derivative 79, methyl 2-((3-((3-cyanophenyl)-ethynyl)imidazo[1,2-a]pyridin-2-yl)methoxy)benzoate]	–	–	128	152	activity at 50 µM [3]: 86%; activity at 100 µM [3]: 74%

From US9381191B2, “Imidazopyridine derivatives useful in treating diabetes” (METABRAIN RESEARCH, priority 2012, dated 2016)
